# Measured values: patent US20250325485A1, “STABLE COMPOSITIONS OF FOXY-5 HEXAPEPTIDE WITH HIGH SOLUBILITY” (WNTRESEARCH AB, priority 2021, published 2025)
# Where a name gives a salt, the structure may show the parent alone. Peptide text beside a SMILES is read from it. * marks the point of attachment. For = O=C*
# Experiment: Conversion of Foxy-5 to mono-, di- and tri-sodium salts
# Format: physicochemical
# Details: aqueous slurry of Foxy-5 25 g/L
# Protocol: As Foxy-5 contains three carboxylic groups (Asp^2, Glu^5, and the C-terminal carboxylic acids), the mono, di, and tri-sodium salts were generated by treating aqueous slurries of Foxy-5 (25 g/L) with 1 eq., 2 eq. and 3 eq. of sodium hydroxide. As starting material, a batch of Foxy-5 free acid containing very low amounts of two known impurities, the aspartimide (<0.1%) and the dimer, (<0.1%) was used (structures, see FIG. 2).
# The di-sodium salt could be completely dissolved within 10 minutes after addition of NaOH (2 eq., pH=4.57). […] After lyophilization, 0.07% dimer and 0.79% aspartimide were detected.
# The tri-sodium salt dissolved within 5 minutes after addition of NaOH (3 eq., pH=6.76) with minimal increase of the aspartimide impurity, but increased formation of the dimer was observed. After lyophilization, 0.41% dimer and 0.17% of the aspartimide were detected.
row,SMILES,time to complete dissolution after addition of NaOH
1,CSCC[C@H](NC=O)C(=O)N[C@@H](CC(=O)O)C(=O)NCC(=O)N[C@@H](CS)C(=O)N[C@@H](CCC(=O)O)C(=O)N[C@@H](CC(C)C)C(=O)O [di-sodium salt] (For-MDGCEL-OH),≤ 10 min

# Same assay, conditions: aqueous slurry of Foxy-5 25 g/L; 1 eq. NaOH, pH=3.84
row,SMILES,dissolution after NaOH addition
1,CSCC[C@H](NC=O)C(=O)N[C@@H](CC(=O)O)C(=O)NCC(=O)N[C@@H](CS)C(=O)N[C@@H](CCC(=O)O)C(=O)N[C@@H](CC(C)C)C(=O)O [mono-sodium salt] (For-MDGCEL-OH),could not be completely dissolved

# Same assay, conditions: starting material aspartimide <0.1%; HPLC
row,SMILES,aspartimide detected after lyophilization
1,CSCC[C@H](NC=O)C(=O)N[C@@H](CC(=O)O)C(=O)NCC(=O)N[C@@H](CS)C(=O)N[C@@H](CCC(=O)O)C(=O)N[C@@H](CC(C)C)C(=O)O [di-sodium salt] (For-MDGCEL-OH),0.79%

# Same assay, conditions: starting material dimer <0.1%; HPLC
row,SMILES,dimer detected after lyophilization
1,CSCC[C@H](NC=O)C(=O)N[C@@H](CC(=O)O)C(=O)NCC(=O)N[C@@H](CS)C(=O)N[C@@H](CCC(=O)O)C(=O)N[C@@H](CC(C)C)C(=O)O [di-sodium salt] (For-MDGCEL-OH),0.07%

# Experiment: FIG. 10
# Details: not given
# Protocol: Table printed on a drawing sheet, FIG. 10
# The patent's description of the figure: FIG. 10
# First reader's note: Storage stability of Foxy-5 free acid and its salts shown as HPLC purity and impurity levels (Ala, aspartimide, dimer) initially and after 2 and 4 weeks at 40°C; decimal commas as printed.
SMILES,After 2 weeks @ 40°C | Ala (area%),After 2 weeks @ 40°C | Aspartimide (area%),After 2 weeks @ 40°C | Dimer (area%),After 2 weeks @ 40°C | HPLC purity (area%),After 4 weeks @ 40°C | Ala (area%),After 4 weeks @ 40°C | Aspartimide (area%),After 4 weeks @ 40°C | Dimer (area%),After 4 weeks @ 40°C | HPLC purity (area%)
CSCC[C@H](NC=O)C(=O)N[C@@H](CC(=O)O)C(=O)NCC(=O)N[C@@H](CS)C(=O)N[C@@H](CCC(=O)O)C(=O)N[C@@H](CC(C)C)C(=O)O [NMG Tri salt] (For-MDGCEL-OH),0 area%,"1,76 area%","1,13 area%","95,97 area%","0,00 area%","3,06 area%","0,82 area%","95,14 area%"
CSCC[C@H](NC=O)C(=O)N[C@@H](CC(=O)O)C(=O)NCC(=O)N[C@@H](CS)C(=O)N[C@@H](CCC(=O)O)C(=O)N[C@@H](CC(C)C)C(=O)O [HIS Tri salt] (For-MDGCEL-OH),0 area%,"1,97 area%","1,10 area%","96,41 area%","0,00 area%","2,43 area%","0,90 area%","95,32 area%"
CSCC[C@H](NC=O)C(=O)N[C@@H](CC(=O)O)C(=O)NCC(=O)N[C@@H](CS)C(=O)N[C@@H](CCC(=O)O)C(=O)N[C@@H](CC(C)C)C(=O)O [TRO Tri salt] (For-MDGCEL-OH),0 area%,"8,24 area%","0,63 area%","87,27 area%","0,00 area%","11,40 area%","1,28 area%","78,60 area%"
CSCC[C@H](NC=O)C(=O)N[C@@H](CC(=O)O)C(=O)NCC(=O)N[C@@H](CS)C(=O)N[C@@H](CCC(=O)O)C(=O)N[C@@H](CC(C)C)C(=O)O [TRO Di salt] (For-MDGCEL-OH),0 area%,"2,75 area%","0,00 area%","96,51 area%","0,00 area%","4,20 area%","0,60 area%","93,87 area%"
CSCC[C@H](NC=O)C(=O)N[C@@H](CC(=O)O)C(=O)NCC(=O)N[C@@H](CS)C(=O)N[C@@H](CCC(=O)O)C(=O)N[C@@H](CC(C)C)C(=O)O [DEA Di salt] (For-MDGCEL-OH),0 area%,"4,98 area%","1,18 area%","92,88 area%","0,25 area%","7,50 area%","3,10 area%","87,11 area%"
CSCC[C@H](NC=O)C(=O)N[C@@H](CC(=O)O)C(=O)NCC(=O)N[C@@H](CS)C(=O)N[C@@H](CCC(=O)O)C(=O)N[C@@H](CC(C)C)C(=O)O [Na Tri salt] (For-MDGCEL-OH),"13,4 area%","0,53 area%","13,20 area%","68,15 area%","14,70 area%","0,30 area%","16,80 area%","60,34 area%"
CSCC[C@H](NC=O)C(=O)N[C@@H](CC(=O)O)C(=O)NCC(=O)N[C@@H](CS)C(=O)N[C@@H](CCC(=O)O)C(=O)N[C@@H](CC(C)C)C(=O)O [LYS Tri salt] (For-MDGCEL-OH),"4,25 area%","1,10 area%","1,80 area%","92,29 area%","8,45 area%","1,26 area%","3,40 area%","84,97 area%"
CSCC[C@H](NC=O)C(=O)N[C@@H](CC(=O)O)C(=O)NCC(=O)N[C@@H](CS)C(=O)N[C@@H](CCC(=O)O)C(=O)N[C@@H](CC(C)C)C(=O)O [LYS Di salt] (For-MDGCEL-OH),0 area%,"2,50 area%","0,00 area%","97,06 area%","0,47 area%","2,80 area%","0,55 area%","95,17 area%"
CSCC[C@H](NC=O)C(=O)N[C@@H](CC(=O)O)C(=O)NCC(=O)N[C@@H](CS)C(=O)N[C@@H](CCC(=O)O)C(=O)N[C@@H](CC(C)C)C(=O)O [NH3 Di salt] (For-MDGCEL-OH),0 area%,"4,45 area%","0,38 area%","92,27 area%","0,00 area%","5,52 area%","0,27 area%","89,75 area%"
CSCC[C@H](NC=O)C(=O)N[C@@H](CC(=O)O)C(=O)NCC(=O)N[C@@H](CS)C(=O)N[C@@H](CCC(=O)O)C(=O)N[C@@H](CC(C)C)C(=O)O [NMG Di salt] (For-MDGCEL-OH),0 area%,"3,85 area%","0,93 area%","93,22 area%","0,00 area%","6,17 area%","0,81 area%","91,23 area%"
CSCC[C@H](NC=O)C(=O)N[C@@H](CC(=O)O)C(=O)NCC(=O)N[C@@H](CS)C(=O)N[C@@H](CCC(=O)O)C(=O)N[C@@H](CC(C)C)C(=O)O [HIS Di salt] (For-MDGCEL-OH),0 area%,"1,97 area%","0,00 area%","97,40 area%","0,00 area%","2,40 area%","0,00 area%","96,52 area%"
CSCC[C@H](NC=O)C(=O)N[C@@H](CC(=O)O)C(=O)NCC(=O)N[C@@H](CS)C(=O)N[C@@H](CCC(=O)O)C(=O)N[C@@H](CC(C)C)C(=O)O [DEA Tri salt] (For-MDGCEL-OH),"1,91 area%","5,78 area%","8,10 area%","82,51 area%","1,82 area%","7,20 area%","5,80 area%","80,92 area%"
CSCC[C@H](NC=O)C(=O)N[C@@H](CC(=O)O)C(=O)NCC(=O)N[C@@H](CS)C(=O)N[C@@H](CCC(=O)O)C(=O)N[C@@H](CC(C)C)C(=O)O [NH3 Tri salt] (For-MDGCEL-OH),0 area%,"4,10 area%","2,95 area%","88,64 area%","0,00 area%","3,88 area%","3,37 area%","86,45 area%"
CSCC[C@H](NC=O)C(=O)N[C@@H](CC(=O)O)C(=O)NCC(=O)N[C@@H](CS)C(=O)N[C@@H](CCC(=O)O)C(=O)N[C@@H](CC(C)C)C(=O)O [Foxy-5 free acid] (For-MDGCEL-OH),0 area%,"0,75 area%","0,00 area%","98,40 area%","0,00 area%","0,80 area%","0,00 area%","98,21 area%"
